Results: US20230310573A1, “Stabilized Vaccine Compositions” (priority 2020, published 2023)
Like-named read-outs stand apart in the source and are kept apart here.

Columns and labels:
Assay type in all cases: physicochemical
[1] = molecular target: T1, RSV pre-fusion F protein of SEQ ID NO: 10 (Human respiratory syncytial virus A, UniProt P03420, D486N/DEL108-136/I379V/M447V/N67I/P102A/S215P); experiment: Thermo-stability (Tm50) of RSV pre-fusion F by Differential Scanning Fluorimetry (DSF)
T1 construct: made in house
Protocol: Thermo-stability of the RSV pre-fusion F protein of SEQ ID NO: 10 was determined by Differential Scanning Fluorimetry (DSF) by monitoring the fluorescent emission of Sypro Orange Dye (ThermoFisher Scientific) in a 96 well optical qPCR plate. Inhibitors were diluted in DMSO prior to the experiment. Same amount of DMSO was added to pre-fusion F protein without inhibitor. To each well, 5 μl of 20× Sypro orange solution was added. Upon gradual increase of the temperature, from 25° C. to 95° C. (0.015° C./s), the polypeptides unfold and the fluorescent dye binds to the exposed hydrophobic residues leading to a characteristic change in emission. The melting curves were measured using a ViiA7 real time PCR machine (Applied Biosystems). The 1st derivative of the fluorescent signal (a.u.) versus the temperature (° C.) of three individual samples (technical triplicate), as well as the averaged melting curve, were plotted with Graphpad Prism software (Dan Diego, CA, US). From the averaged melting curve, the Tm50 was deducted (lowest point on the curve). The Tm50 values represent the temperature at which 50% of the protein is unfolded and thus are a measure for the temperature stability of the polypeptides. The increase of the Tm50 is reported as difference of the Tm50 of pre-fusion F protein with stabilizing antiviral compound compared with the Tm50 of pre-fusion F protein with only addition of DMSO (i.e. without antiviral compound).
(§1) Vials were frozen to −70° C. in 24 hours under controlled conditions. Samples were subsequently thawed to RT and analyzed by analytical Size Exclusion Chromatography (SEC) to measure loss of RSV F trimer compared the sample that was kept at 4° C. In addition, the dialyzed materials with and without stabilizing compound III were evaluated in DSF to measure the melting temperature. For experimental details see example 2.
as §1, with “Each formulation (pre and post UF/DF samples) was diluted to 0.3 mg/ml. 0.75 ml of each formulation was filled in glass injection vials with rubber stopper and sealed with aluminum caps. Vials” for “Vials”, “different formulations” for “dialyzed materials”
(§2) Each formulation (pre and post dialysis samples) was diluted to 0.3 mg/ml. 0.75 ml of each formulation was filled in glass injection vials with rubber stopper and sealed with aluminum caps. Vials were slowly frozen to −70° C. in 24 hours. Samples were subsequently thawed to RT and analyzed by analytical Size Exclusion Chromatography (SEC) to measure loss of RSV F trimer compared the sample that was kept at 4° C. In addition, the different formulations with and without compound III were evaluated in DSF to measure the melting temperature. For experimental details see example 2.

[2] = molecular target: T2, RSV pre-fusion F (preF) protein of SEQ ID NO: 10 (Human respiratory syncytial virus A, UniProt P03420, D486N/DEL108-136/I379V/M447V/N67I/P102A/S215P); experiment: UF/DF buffer exchange and slow freezing, aggregation by analytical SEC; conditions: for aggregation after buffer exchange and slow freezing: 1:50
T2 construct: made in house
Protocol: Buffer exchange of samples with and without stabilizing compound III was performed by ultrafiltration/diafiltration (UF/DF), using a Cogent μScale TFF system (Merck). […] Stabilizing compound III was preincubated with the sample and in one case also added to the buffer used for the UF/DF (see FIG. 12 labeled 1:3 & In Buffer). Runs were performed using Pelicon XL Biomax 50 cm2 filter cassettes. For each run, the system was flushed with MilliQ water at a crossflow of 30-50 mL/min, then the system was cleaned with NaOH 0.1M (recirculated for at least 5 min.) After this, the system was flushed again with MilliQ water until a pH of 7 was reached, followed by a 5 min. flush of the system with the desired buffer. Subsequently, the protein (50 mL) was added to the system for diafiltration against 7 diavolumes (350 mL) of the desired buffer.
as §2, with “UF/DF” for “dialysis”, “were” for “were slowly”, “hours under controlled conditions.” for “hours.”, “without stabilizing” for “without”
Stabilizing compound III was added in a 1:50 trimer:compound ratio before the UD/DF and incubated for 24 hours at […] The excess of unbound stabilizing compound III is removed during the UF/DF process.
as §2

[3] = molecular target: T2, RSV pre-fusion F (preF) protein of SEQ ID NO: 10
[4] = molecular target: T1, RSV pre-fusion F protein of SEQ ID NO: 10; conditions: phosphate buffer (Formulation 1), preF 0.3 mg/ml, 1:3 trimer:compound, RT to −70° C. in 24 hours
Protocol: The RSV pre-fusion F protein of SEQ ID NO: 10 was diluted to 0.3 mg/ml in phosphate buffer (Formulation 1) and 0.75 ml was filled in glass injection vials with rubber stopper and sealed with aluminum caps. Additionally, protein was diluted in the formulation buffers with inhibitor in a 1:3 trimer:compound ratio. One inhibitor binds one trimer so with a 1:3 ratio there is an excess of inhibitor. […] In 24 hours, samples were cooled down from RT to −70° C. Samples were thawed to RT and analyzed by analytical Size Exclusion Chromatography (SEC) to measure loss of RSV F trimer.
0.75 ml of each formulation was filled in glass injection vials with rubber stopper and sealed with aluminum caps. Additionally, protein was diluted in the formulation buffers and inhibitor was added in a 1:1, 1:3, 1:9, 1:27 and 1:50 trimer: compound ratio. Final compound concentrations were 1.7×10^−6 M, 5.2×10^−6 M, 1.6×10^−5M, 4.6×10^−5, and 8.6×10^−5 M, respectively. Vials were slowly frozen to −70° C. in 24 hours. Samples were subsequently thawed to RT and analyzed by analytical Size Exclusion Chromatography (SEC) to measure loss of RSV F trimer compared the sample that was kept at 4° C.

CS(=O)(=O)CCCn1c(Cn2c(=O)n(C3CC3)c3ccncc32)nc2cc(Br)ccc21 [Compound III, 3-[[5-bromo-1-(3-methylsulfonylpropyl)benzimidazol-2-yl]methyl]-1-cyclopropyl-imidazo[4,5-c]pyridin-2-one]
Tm50 (DSF) after buffer exchange ([1]; 1:50, Formulation 1 and 2 without PS20, AP1): increased the Tm50 irrespective of the buffer
Tm50 (DSF) after UF/DF ([1]; compound in the protein and in the diavolume): yielded the highest Tm50
Tm50 (DSF), 1:30 ratio vs 1:3 ratio ([1]; dialysis experiment): yielded a higher Tm50 than a 1:3 ratio
Tm50 (DSF) vs samples without compound ([1]; pre- and post-dialysis samples): higher
Tm50 (DSF) over time after dialysis ([1]; stored at 4° C., Day 0, 21, 84): remained relatively constant
aggregation after buffer exchange and subsequent slow freezing ([2]; 1:50 trimer:compound before UF/DF, irrespective of the buffer): protected from aggregation
aggregation after buffer exchange and slow freezing ([2]; AP1 buffer): did not provide enough protections against aggregation
aggregation after buffer exchange and slow freezing ([2]; Formulation 1 without PS20): provided protection against aggregation
aggregation after UF/DF and slow freezing ([2]; Formulation buffer 6, irrespective of compound concentration): protected from aggregation
trimer content after heat stress (SEC) ([3]; 6 weeks at 37° C., AP1, formulation 1, formulation 5a, trimer:compound 1:3 and 1:9): trimer content was not changed compared to the control
aggregation after heat stress (SEC) ([3]; 6 weeks at 47° C., AP1, formulation 1, formulation 5a, trimer:compound 1:3 and 1:9): aggregation was higher for the samples without compound compared to the samples with compound
formation of protein aggregates in liquid phase (SEC trimer content vs 4° C. control) ([3]; 37° C., up to 26 weeks, different buffers, 1:3 or 1:9): protects from the formation of protein aggregates
protection from aggregation over time, by ratio ([3]; 37° C., up to 26 weeks, higher ratios (1:9)): best protection from aggregation over time
protection from aggregation at 37° C. ([3]; AP1, 9, 16 or 26 weeks): did not show protection from aggregation
trimer content at 37° C. ([3]; Formulation 1, 9, 16 or 26 weeks): improved the trimer content
trimer content at 37° C. ([3]; Formulation 5a and FB12, 9, 16 or 26 weeks): always improved the trimer content
trimer signal lost after slow freeze/thaw (analytical SEC) [4]: 2.0+/−2.0%
